Experiment [1] relates to unbundled Huntingtin fibrils (exon 1). The experiment is described as follows: Radioactive binding assay, immobilized unbundled Huntingtin fibrils. Conditions: for binding to Htt-fibrils: radiolabeled mRNA-peptide fusions, fibrils immobilized on beads; for effect on HD1 binding of constant region / N-terminal mutation: HD 1A versus HD1 with GSGTSGSS, HD1 MA versus HD1 MM; for effect on binding of mutating the HD8 residue to Alanine: Alanine scan of HD8; for effect on HD8 binding affinity of constant region / N-terminal mutation: versus HD8 with GSGTSGSS, HD8 MA versus HD8 MM; for effect on binding of mutating the HD1 residue to Alanine: Alanine scan of HD1. From the text: Messenger RNA (mRNA) display (described in (Roberts, et al. (1997) Proc Natl Acad Sci USA 94: 12297-302, Takahashi, et al. (2003) Trends Biochem Sci 28: 159-65); FIG. 2) was used to engineer peptide agents that bind to unbundled fibrils of Huntingtin exon 1. To do this, unbundled Huntingtin fibrils were generated by mixing biotinylated Huntingtin protein (exon 1; FIG. 1) with non-biotinylated exon 1 Huntingtin protein at a ratio of 1:20 (˜5% biotinylated Huntingtin). These fibrils were then immobilized on Neutravidin agarose (Thermo Fisher) or Streptavidin ultralink beads (Thermo Fisher) via the attached biotin. A MX9 (where X is any of the 20 natural amino acids) mRNA display library was generated using published procedures (Takahashi, et al. (2009) Methods Mol Biol 535: 293-314) and incubated with immobilized fibrils. Non-binding sequences were washed away and the remaining fibril binding peptides were amplified via RT-PCR. This process was repeated seven times.
(§1) The binding of the peptide library was determined using a radioactive binding assay. In this assay, peptides were radiolabeled by translating the mRNA coding for these peptides in the presence of ^35S-methionine using rabbit reticulocyte lysate (Jackson, et al. (1983) Methods Enzymol 96: 50-74). These peptides were translated in an mRNA display format and were thus linked to their encoding mRNA, as described above. After purification by dT chromatography, the radiolabeled peptides were incubated with Huntingtin fibrils immobilized on Neutravidin Agarose or Streptavidin Ultralink beads. The beads were then filtered through a Spin X column (Corning) to separate the supernatant and beads, then washed to remove unbound sequences. The supernatant, washes, and beads were all counted in a scintillation counter to determine the counts in each sample. The percent bound was determined by dividing the counts on the beads with the total counts (beads+washes+supernatant).

Experiment [2] is described as follows: Radioactive binding assay, beads without target (no target control). Conditions: radiolabeled peptide. The method, then: as §1
Experiment [3] relates to Httex1 aggregates. In words: Labeling of Httex1 aggregates in retinal sections of Huntington mouse models. Conditions: R6/1 (34 weeks) and zQ175KI (48 weeks) mice, 2 micromolar. An excerpt: FIG. 28 presents fluorescence microscopy pictures showing that HD8-Alexa488 labels aggregated Httex1 in retina sections from two different mouse model of Huntington disease. Left panels show nuclear stain that labels all cells. Right panels show signal from HD8-Alexa488. Top panels show a retinal section from a R6/1 mouse, and bottom panels show a retinal section from a zQ175KI mouse.
Left panels show nuclear stain that labels all cells (A1 and B1), and right panels show signal from HD8-SP10-HD1-fluorescein (A2 and B2). Top panels are higher magnification that show the ganglion cell layer of the retina, and the bottom panels are lower magnification micrographs that show all retinal layers. Labeling of all retinal layers is seen when the HD peptides are dimerized. The phase contrast panel to the left of the bottom panels show the corresponding retinal layers: ONL: outer nuclear layer that contain rod and cone photoreceptor cells, INL: inner nuclear layer that contains cell bodies from horizontal cells, bipolar cells, amacrine cells and Müller cells, GCL: ganglion cell layer.
To see whether HD peptides bind Httex1 aggregates formed in vivo, we used tissues from two different Huntington mouse models, R6/1 (34 weeks old) and zQ175KI (48 weeks). FIG. 28 show retinal sections from these mice incubated with 2 micromolar of HD8 conjugated with Alexa488 at its carboxyl terminus.
HD8-HD1-fluorescein (0.1 micromolar) was also used on retinal sections from 34-week-old R6/1 mice (FIG. 29). […] In addition, weaker signal from intranuclear aggregates was also observed. Further, the signal can now be detected in all layers of the retina where the nuclei reside.

The target of experiment [4] is unbundled fibrils of Huntingtin exon 1 (about 5% biotinylated), immobilized on beads (UniProt P42858). In words: alanine scan of the constant region, radioactive binding assay.
For experiment [5] the target is unchanged. In words: EPR, spin-labeled peptide titrated onto 15 µM fibrils.

“Also recorded” adds a separate entry of the source. No end group written: not given here. spin label = not defined here

For the molecule MFMMMWMSLT (MFMMMWMSLTGSGTSGSS) [HD4], the “binding to Htt-fibrils” value in experiment [1] is on record as “demonstrated binding to Htt-fibrils”. For the same molecule, the “binding to beads without target” value in experiment [2] was “little to no binding to beads without target”. In the case of “HD 1A: HD1 with substitution of the GSGTSGSS constant region with Ala (MDWWPMWPSLA)”, the “effect on HD1 binding of constant region / N-terminal mutation” value in experiment [1] is reported as “little effect on binding affinity”. In the case of MWQMANGMSQ [M5], in experiment [1], the “effect on binding of mutating the HD8 residue to Alanine” value is given as “modest losses”. MRWSMSYSWA (MRWSMSYSWAGSGTSGSS) [HD3]: the “binding to Htt-fibrils” value in experiment [1] is listed as “demonstrated binding to Htt-fibrils”. Moreover, in experiment [2], the “binding to beads without target” value is reported as “little to no binding to beads without target”. As to MWQMMNGASQ [M8], in experiment [1], the “effect on binding of mutating the HD8 residue to Alanine” value was “modest losses”. Take MDLWPMWESW (MDLWPMWESWGSGTSGSS) [HD7]: the “binding to Htt-fibrils” value in experiment [1] is “good binding to Htt-fibrils”. Also, the “binding to beads without target” value in experiment [2] was “little to no binding to beads without target”. As for “MDWWPLWPSL (MDWWPLWPSLGSGTSGSS) [HD1 M6L]”, the “effect on binding of Met substitution in HD1” value in experiment [1] (HD1 Met mutants versus HD1) was “no effect on binding”. As to MWQMMNAMSQ [G7], the “effect on binding of mutating the HD8 residue to Alanine” value in experiment [1] was “modest losses”. Regarding MWQMMNGMSQG [HD 8G], the “effect on HD8 binding affinity of constant region / N-terminal mutation” value in experiment [1] was “loss could be recovered”. With “HD8-Alexa488: HD8 conjugated with Alexa488 at its carboxyl terminus (MWQMMNGMSQ-Alexa488)”, the “labeling of retinal sections” value in experiment [3] is “Specific staining was observed in the ganglion cell layer of the retina in both mouse models”; in experiment [3] (listed as HD8 conjugated with Alexa488), “observed mostly in the ganglion cell layer”.

On to MDAWPMWPSL [W3], for which the “effect on binding of mutating the HD1 residue to Alanine” value in experiment [1] is “decrease binding”. Turning to “HD1 MA: HD1 with additional Met at the N-terminus, Met1 changed to Ala (MADWWPMWPSLGSGTSGSS)”, in experiment [1], the “effect on HD1 binding of constant region / N-terminal mutation” value was “significantly decreases binding”. For MDWWPMWPSA [L10], in experiment [1], the “effect on binding of mutating the HD1 residue to Alanine” value is “decrease binding”. For the molecule MAQMMNGMSQ [W2], in experiment [1], the “effect on binding of mutating the HD8 residue to Alanine” value was “modest losses”. Turning to MWQMMNGMSQA [HD 8A], the “effect on HD8 binding affinity of constant region / N-terminal mutation” value in experiment [1] is reported as “modest loss in binding affinity”. For MFFVLSWTPL [HD5], in experiment [2], the “binding to beads without target” value is “high non-specific binding to beads without target”. Take MWAMMNGMSQ [Q3]: the “effect on binding of mutating the HD8 residue to Alanine” value in experiment [1] is given as “large losses of binding”. For MQMWTMWEPW (MQMWTMWEPWGSGTSGSS) [HD 6], in experiment [1], the “binding to Htt-fibrils” value is reported as “good binding to Htt-fibrils”. In addition, in experiment [2], the “binding to beads without target” value is recorded as “little to no binding to beads without target”. Take MDWWPMWASL [P8]: the “effect on binding of mutating the HD1 residue to Alanine” value in experiment [1] is reported as “decrease binding”.

In the case of MDWWPAWPSL [M6], the “effect on binding of mutating the HD1 residue to Alanine” value in experiment [1] is “decrease binding; also recorded: reduced but did not abolish”.

As to “MAWQMMNGMSQ GSGTSGSS (MAWQMMNGMSQGSGTSGSS) [HD8 MA]”, the “effect on HD8 binding affinity of constant region / N-terminal mutation” value in experiment [1] was “decrease in binding”.

Consider “HD8SP10-HD1: dimeric peptide agent of HD8 and HD1 joined by a 10 amino acid spacer (MWQMMNGMSQGSGTSGSSGSMDWWPMWPSLGSGTSGSS)”, for which the “binding in the presence of urea” value in experiment [1] (1 M, 2 M or 3 M urea versus buffer only (TBST)) is “decreased binding that is approximately proportional to the amount of urea added”.

With “HD1-SP10-HD8-SP10-HD1: trimeric peptide agent of HD1, HD8, HD1 with spacers (MDWWPMWPSLGSGTSGSSGSMWQMMNGMSQGSGTSGSSGSMDWWPMWPSL)”, the “binding under lower fibril conditions” value in experiment [1] (0.7 μg protein (about 50 pmol as monomer)) is recorded as “better performing”. On to MDWWAMWPSL [P5], for which the “effect on binding of mutating the HD1 residue to Alanine” value in experiment [1] is recorded as “decrease binding”. Consider MWMIQMPGYQ (MWMIQMPGYQGSGTSGSS) [HD2], for which, in experiment [1], the “binding to Htt-fibrils” value was “demonstrated binding to Htt-fibrils”. Also, the “binding to beads without target” value in experiment [2] is listed as “little to no binding to beads without target”. Turning to MWQMMNGMSQGS [HD 8GS], in experiment [1], the “effect on HD8 binding affinity of constant region / N-terminal mutation” value is “loss could be recovered”.

B1: HD1 S12A (peptide)
peptide: MDWWPMWPSLGAGTSGSS
modifications: also: 35S-methionine
B1: the percent decrease in HD1 binding in experiment [4] was determined as 20%.

B2: spin-labeled synthetic HD1 (peptide)
peptide: MDWWPMWPSLC(spin label)
modifications: reading uncertain
For B2, the stoichiometry of the complex (ratio at saturation) (ratio (printed 1:3)) in experiment [5] turned out to be 0.33.

B3: HD1 G13A (peptide)
peptide: MDWWPMWPSLGSATSGSS
modifications: also: 35S-methionine
Regarding B3, the percent decrease in HD1 binding in experiment [4] turned out to be 20%.

B4: HD1 G11A (peptide)
peptide: MDWWPMWPSLASGTSGSS
modifications: also: 35S-methionine
In the case of B4, the percent decrease in HD1 binding in experiment [4] came to 20%.

B5: HD8-SP10-HD1-SP10-HD8-SP10-HD1: tetrameric HD8/HD1 molecule with spacers (peptide)
peptide: MWQMMNGMSQGSGTSGSSGSMDWWPMWPSLGSGTSGSSGSMWQMMNGMSQGSGTSGSSGSMDWWPMWPSL
B5: the “binding to Htt-fibrils in the presence of serum” value in experiment [1] (serum diluted 1:2, 1:5 or 1:10 with buffer (TBST)) is listed as “serum can partially inhibit binding”.

B6: spin-labeled synthetic HD8 (peptide)
peptide: MWQMMNGMSQC(spin label)
modifications: reading uncertain
In the case of B6, the stoichiometry of the complex (ratio) (ratio (printed 1:1)) in experiment [5] was determined as 1.

(Values after patent US20230322854A1, “HUNTINGTIN-RELATED PEPTIDE AGENTS AND USES THEREOF” (UNIVERSITY OF SOUTHERN CALIFORNIA, priority 2020, published 2023).)
